Measurements reported in US20090156657A1, “ANTI-INFLAMMATORY COMPOSITION” (Ajinomoto Co., Inc., priority 2006, published 2009).

Key:
MCP-1 mRNA = MCP-1 mRNA expression in HAEC by real-time PCR; format: cell-based, human; conditions: 10 μM 24 h, 25 mM glucose 3 h, GAPDH internal standard, FIG. 3B
Procedure: (§1) HAEC cells pre-treated with 10 μM of CS or FS for 24 hours were stimulated with 25 mM glucose for 3 hours, and total RNA was extracted with Isogenkit (NIPPON GENE CO., LTD.). From 1 μg of RNA, cDNA was synthesized using 100 U/mL of reverse transcriptase (TAKARA BIO INC.) and 0.1 μM of oligo (dT)-adapter (TAKARA BIO INC.) (total volume of reaction mixture; 50 μL) (42° C., 40 minutes). Real-time PCR was performed using 7300 Real Time PCR system (Applied Biosystems Japan Ltd.) and the PCR product was detected by SYBER Green I.
(§2) PCR reaction composition (RT-PCRkit, TAKARA BIO INC.): 12.5 μL Premix Ex Taq, 2.5 μL SYBER Green I, synthesis primer, ROX reference dye, cDNA (corresponding to 20 ng of total RNA), final reaction volume; 25 μL
(§3) Primers having the following sequences were used.
(§4) PCR was conducted under the following conditions.
(§5) thermal denaturation: at 95° C. for 15 seconds, extension reaction: 40 cycles (3 seconds at 95° C., 31 seconds at 60° C.)
(§6) Expression amounts of VCAM-1 and MCP-1 mRNA were calculated using GAPDH as the internal standard.

VCAM-1 = VCAM-1 protein expression on HAEC cell membrane (immunostaining); format: cell-based, human; conditions: 0.1-10 μM 24 h, 25 mM glucose 4 h, FIG. 4A
Procedure: (§7) HAEC cells proliferated to confluence in a 96 well microplate were pre-incubated with 0.1-10 μM serotonin derivative for 24 hours, and stimulated with 25 mM glucose for 4 hours. The cell layer was washed with Hanks solution, and then anti-VCAM-1 monoclonal antibody (Becton Dickinson) was added and the cells were incubated at 37° C. for 1 hour. After washing, the cells were incubated with secondary antibody (peroxidase-labeled anti-mouse IgG goat F(ab′)2 fragment; Cappel) for 1 hour. A color development substrate (o-phenylenediamine dihydrochloride) was added and, about 30 minutes later (room temperature), the absorbance (492 nm) of each well was quantified with a microplate reader. The MCP-1 concentration of the medium was quantified with Human MCP-1 Immunoassay Kit (BioSource International).

[1] = tested on: U-937 monocyte cells / HAEC; test: Monocyte (U-937) adhesion to HAEC cells; format: cell-based, human; conditions: HAEC pre-incubated 5 or 10 μM 24 h, 25 mM glucose 4 h; FIG. 5
Procedure: HAEC cells proliferated to confluence in a 24 well microplate were pre-incubated with CS and FS (5 or 10 μM each) for 24 hours and stimulated with 25 mM glucose for 4 hours. The cell layer was washed with Hanks solution, and then a suspension (1×10^6/mL, 200 μL) of U-937 monocyte cells (purchased from ATCC) was added, and the mixture was incubated at 37° C. for 30 minutes. After washing again, the cells were fixed with 1% para-formaldehyde and the number of U-937 cells attached onto HAEC was counted under a microscope (20 fields). The experiment was performed 3 times and the results are shown as an average value thereof. An experiment using fluorescence-labeled U-937 cells was also performed. To be specific, U-937 cells were incubated (37° C., 1 hour) in the presence of 10 μM 2′,7′-bis(2-carboxyethyl)-5(6)-carboxyfluorescein acetoxymethylester (BCECF-AM, Molecular Probes) and washed by centrifugation. Fluorescence-labeled U-937 cells (1×10^6/mL) were added to HAEC cells, and the mixture was incubated at 37° C. for 1 hour. The floating U-937 cells were removed, the plate was washed with PBS buffer and treated with 1% Triton X for 2 hours. The fluorescence amount of the attached cells was quantified (Ex. 503 nm, Em. 525 nm) using a fluorescence plate reader (Bio-Rad, Fluoromark).

VCAM-1 mRNA = VCAM-1 mRNA expression in HAEC by real-time PCR; format: cell-based, human; conditions: 10 μM 24 h, 25 mM glucose 3 h, GAPDH internal standard, FIG. 3A
Procedure: as §1, §2, §3, §4, §5, §6

U-937 cells / HAEC = test: Migration capability of monocyte (U-937), Transwell system with HAEC; format: cell-based, human; conditions: HAEC pre-incubated 5 or 10 μM 24 h, 25 mM glucose 4 h; FIG. 7
Procedure: The migration capability of monocyte was measured using the Transwell system (pore size 3 μm; BD Biosciences). HAEC cultured on a transwell placed in a 24 well microplate was pre-incubated with 5 or 10 μM serotonin derivative for 24 hours, and stimulated with 25 mM glucose for 4 hours. 200 μL of U-937 cell suspension (10^6 cells/mL) was added to the transwell and the cells were incubated as-is at 37° C. for 2 hours. The number of cells migrated to the lower chamber of the transwell through the membrane was counted under a microscope (20 fields). The experiment was repeated three times, and the results are shown as an average value thereof. An experiment using fluorescence-labeled U-937 cells was also performed. BCECF-AM-labeled U-937 cells were plated in the upper chamber of the transwell and incubated at 37° C. for 2 hours. The cells migrated to the lower chamber through the membrane were collected in 1 mL of PBS buffer and treated with 1% Triton X for 2 hours. The fluorescence derived from the migrated cells was quantified (Ex. 503 nm, Em. 525 nm) using a fluorescence plate reader (Bio-Rad, Fluoromark).

MCP-1 = MCP-1 secretion into medium of HAEC (immunoassay); format: cell-based, human; conditions: 0.1-10 μM 24 h, 25 mM glucose 4 h, FIG. 4B
Procedure: as §7

[2] = tested on: TNF-α, IL-1α, IL-1β and IL-6 production; conditions: human peripheral blood monocyte stimulated by LPS; cited from earlier work
NF-κB (p65) = test: Activation of NF-κB (nuclear translocation of p65) in HAEC stimulated with high glucose; format: cell-based, human; conditions: pre-treatment 5 and 10 μM 24 h, 25 mM glucose 2 h, FIG. 1
Procedure: In the present invention, the term “suppression of NF-κB activation” means suppression of the translocation of NF-κB into the nucleus. The suppression of the translocation of NF-κB into the nucleus can be confirmed by the method described in Example 1. To be specific, a test substance is added to a culture medium of human aortic endothelial cells, the cells are incubated for a predetermined time, the nucleus is extracted from the aforementioned cells stimulated with glucose, and activated NF-κB (p65) translocated into the nucleus is detected. Using the cells before glucose stimulation, wherein NF-κB is not activated, as a negative control and the cells stimulated with glucose and free of addition of a test substance as a positive control, when the detection level of the aforementioned p65 is closer to the negative control than to the positive control, NF-κB activation is evaluated to have been suppressed.
Human aortic endothelial cells (HAEC) were purchased from Clonetics Corp, and the cells cultured for 3-4 passages (37° C., under 5% carbon dioxide gas atmosphere) were used for the experiment. […] Nucleus was extracted from the cells using Nuclear Extract Kit (Active Motif), and then the activated NF-κB (p65) translocated into the nucleus was detected by TransAM NF-κB p65 Kit (Active Motif).

[3] = tested on: IBD model mice (IL-10 deficient cell-transplanted SCID mice); conditions: Ikenoue et al. 2005; cited from earlier work

SMILES | expression amount of MCP-1 mRNA (MCP-1 mRNA) | VCAM-1 expression on the cell membrane (VCAM-1) | number of U-937 cells attached onto HAEC (cell count) [1] | expression amount of VCAM-1 mRNA (VCAM-1 mRNA) | number of U-937 cells migrated into subendothelium space (cell count) (U-937 cells / HAEC) | MCP-1 secretion into the medium (MCP-1) | concentration inhibiting production of TNF-α, IL-1α, IL-1β and IL-6 at a transcription level [2] | nuclear translocation of p65 (activation of NF-κB) (NF-κB (p65)) | condition (chronic inflammation in the intestine) of the IBD model [3]
O=C(/C=C/c1ccc(O)cc1)NCCc1c[nH]c2ccc(O)cc12 [CS, N-(p-coumaroyl)serotonin] | significantly suppressed the increase | suppressed the induction of their expressions in a dose-dependent manner | decreased the number of attached cells in a serotonin derivative dose-dependent manner | significantly suppressed the increase | significantly decreased | suppressed the induction of their expressions in a dose-dependent manner | ≥ 50 µM | significantly suppressed | 
C[C@]12C=CC(=O)C=C1CC[C@@H]1[C@@H]2[C@@H](O)C[C@@]2(C)[C@H]1CC[C@]2(O)C(=O)CO [prednisolone] |  |  |  |  |  |  |  |  | can be improved
